Reference: the supplement of paper PMC10307832

Legend:
Experiment in all cases: relative viability (nuclei count vs DMSO), 5 days (fraction); higher = more cells survive
[1] = compound: CC1=CC(=CC=C1)NC2=NC(=CS2)C3=CC=NC=C3 + Cc1cc(Nc2cc(N3CCN(C)CC3)nc(Sc3ccc(NC(=O)C4CC4)cc3)n2)n[nH]1 [Tozasertib] (partner 0.1 µM)
Procedure, shortened: (§1)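 One day after seeding in 1536-well plates, lung cancer cell lines were dosed by pin tool. Dosing was either single-drug or a fixed anchor-drug dose plus five library-drug doses (not always all listed) in √10 steps. After 5 days, nuclei were stained in one fix-and-stain step and counted on 4× images, and relative viability is the nuclei count of treated wells over that of vehicle wells, given as the median of duplicate plates.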

[2] = compound: CC1=CC(=CC=C1)NC2=NC(=CS2)C3=CC=NC=C3 + O=C(c1cc(Cc2n[nH]c(=O)c3ccccc23)ccc1F)N1CCN(C(=O)C2CC2)CC1 [Olaparib] (partner 8 µM)
Procedure, shortened: as §1

[3] = compound: CC1=CC(=CC=C1)NC2=NC(=CS2)C3=CC=NC=C3 + CC(C)C[C@H](NC(=O)[C@H](Cc1ccccc1)NC(=O)c1cnccn1)B(O)O [Bortezomib] (partner 0.002 µM)
Procedure, shortened: as §1

[4] = compound: CC1=CC(=CC=C1)NC2=NC(=CS2)C3=CC=NC=C3 + CS(=O)(=O)CCNCc1ccc(-c2ccc3ncnc(Nc4ccc(OCc5cccc(F)c5)c(Cl)c4)c3c2)o1 [Lapatinib] (partner 2 µM)
Procedure, shortened: as §1

| Cell Line | relative viability ([1]; first compound 0.08 µM) | relative viability ([1]; first compound 0.253 µM) | relative viability ([1]; first compound 0.8 µM) | relative viability ([1]; first compound 2.53 µM) | relative viability ([1]; first compound 8 µM) | relative viability ([2]; first compound 0.08 µM) | relative viability ([2]; first compound 0.253 µM) | relative viability ([2]; first compound 0.8 µM) | relative viability ([2]; first compound 2.53 µM) | relative viability ([2]; first compound 8 µM) | relative viability ([3]; first compound 0.08 µM) | relative viability ([3]; first compound 0.253 µM) | relative viability ([3]; first compound 0.8 µM) | relative viability ([3]; first compound 2.53 µM) | relative viability ([3]; first compound 8 µM) | relative viability ([4]; first compound 0.08 µM) | relative viability ([4]; first compound 0.253 µM) | relative viability ([4]; first compound 0.8 µM) | relative viability ([4]; first compound 2.53 µM) | relative viability ([4]; first compound 8 µM) |
| --- | --- | --- | --- | --- | --- | --- | --- | --- | --- | --- | --- | --- | --- | --- | --- | --- | --- | --- | --- | --- |
| NCI-H522 | 0.539 | 0.54 | 0.59 | 0.504 | 0.643 | 0.708 | 0.579 | 0.746 | 0.544 | 0.704 |  |  |  |  |  |  |  |  |  |  |
| HCC-15 | 0.413 | 0.443 | 0.304 | 0.385 | 0.298 | 0.713 | 0.696 | 0.717 | 0.677 | 0.694 | 0.963 | 1.03 | 0.973 | 1.02 | 0.753 | 0.809 | 0.841 | 0.848 | 0.845 | 0.739 |
| A-427 | 0.245 | 0.185 | 0.216 | 0.213 | 0.192 | 0.456 | 0.576 | 0.565 | 0.683 | 0.615 | 0.84 | 1.03 | 0.895 |  | 0.84 | 0.972 | 1.09 | 1.03 |  | 0.892 |
| NCI-H23 | 0.404 | 0.324 | 0.296 | 0.253 | 0.418 | 0.226 | 0.228 | 0.22 | 0.221 | 0.235 | 1.17 | 1.08 | 1.29 | 0.866 | 0.739 | 0.971 | 1.07 | 1.01 | 1 | 0.894 |
| NCI-H1755 | 0.539 | 0.608 | 0.47 | 0.539 | 0.394 | 0.796 | 0.829 | 0.769 | 0.598 | 0.533 | 0.937 | 0.886 | 0.832 | 0.819 | 0.572 | 1.01 | 1.04 | 0.843 | 0.902 | 0.707 |
| LU99A | 0.247 | 0.265 | 0.297 | 0.257 | 0.28 | 0.233 | 0.262 | 0.275 | 0.27 | 0.237 |  | 1.09 | 1.15 | 1.06 | 1.05 |  | 1.02 | 1.01 | 0.903 | 0.868 |
| PC-3 [JPC-3] | 0.837 | 0.803 | 0.789 | 0.771 | 0.61 | 0.926 |  | 1.01 | 1.07 | 0.924 | 0.743 | 0.821 | 0.577 | 0.636 | 0.361 | 0.36 | 0.375 | 0.453 | 0.362 | 0.467 |
| NCI-H1975 | 0.693 | 0.654 | 0.281 | 0.181 | 0.179 | 0.747 | 0.442 | 0.458 | 0.395 | 0.235 | 0.361 | 0.352 | 0.374 | 0.267 | 0.171 | 0.723 | 0.821 | 0.657 | 0.651 | 0.544 |
| NCI-H1703 |  |  |  |  |  | 0.313 | 0.33 | 0.359 | 0.585 | 0.447 | 0.241 | 0.317 | 0.334 | 0.336 | 0.331 | 0.894 | 1.21 | 1.19 | 1.36 | 1.07 |
